Where “and” joins values, the source holds several entries; their conditions need not be identical. Identical values can stand only once. Like-named read-outs stand apart in the source and are kept apart here.
Assays:
HDAC6 = HDAC6 (Homo sapiens, UniProt Q9UBN7); assay: HDAC enzyme activity in vitro; format: biochemical
HDAC9 = HDAC9 (Homo sapiens, UniProt Q9UKV0); assay: HDAC enzyme activity in vitro; format: biochemical
HDAC11 = HDAC11 (Homo sapiens, UniProt Q96DB2); assay: HDAC enzyme activity in vitro; format: biochemical
HDAC11, sequence (Q96DB2 whole entry): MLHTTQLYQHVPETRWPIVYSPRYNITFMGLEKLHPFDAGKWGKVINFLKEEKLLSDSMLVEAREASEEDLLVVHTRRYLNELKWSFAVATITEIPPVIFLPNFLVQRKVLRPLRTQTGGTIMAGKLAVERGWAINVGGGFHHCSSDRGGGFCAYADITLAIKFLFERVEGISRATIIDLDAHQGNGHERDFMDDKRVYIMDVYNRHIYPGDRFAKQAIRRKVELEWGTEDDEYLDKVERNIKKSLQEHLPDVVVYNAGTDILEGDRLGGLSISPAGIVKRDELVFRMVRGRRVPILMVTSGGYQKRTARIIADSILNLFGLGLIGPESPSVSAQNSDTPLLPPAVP

Karpas299 = assay: Cell viability CCK8; format: cell-based; conditions: Homo sapiens, KARPAS-299; Karpas299, 72 h; no unit in table; read-out: Antiproliferative activity IC50
Method: (§1) PM, panobinostat, Pom and DXM were dissolved in DMSO and stored at -20°C freezer. Cells were seeded at a density of 1.0-3.0 × 10^4 cells/well/100 μL in 96-well plates. After overnight incubation, cells were treated with the drug-containing culture medium for 24, 48, or 72 hours, and cell viability was measured using CCK8 (Oriscience, Chengdu, China) at the indicated time points with Biotek Cytation 3 at a wavelength of 450 nm. The IC50 values were calculated using GraphPad Prism 9.4.1, and Calcusyn 2.0 software was employed to calculate the CI values.

OPM2 = assay: Cell viability CCK8; format: cell-based; conditions: Homo sapiens, OPM-2; OPM2, 72 h; no unit in table; read-out: Antiproliferative activity IC50
Method: as §1

RL = assay: Cell viability CCK8; format: cell-based; conditions: Homo sapiens, 72 h, no unit in table, read-out: Antiproliferative activity IC50
Method: as §1

TMD-8 = assay: Cell viability CCK8; format: cell-based; conditions: Homo sapiens, TMD8; TMD-8, 72 h; no unit in table; read-out: Antiproliferative activity IC50
Method: as §1

[1] = system: diffuse large B-cell lymphoma (DLBCL) cells from patient C; assay: Cell apoptosis analysis, primary cells; format: cell-based, human; conditions: 5 nM, 48 h
Method: (§2) CD138^+, CD38^+, or CD20^+ primary cells were obtained from plasma cell leukemia patients and DLBCL patients who had relapsed after multiple drug therapies. These patient samples were sourced from West China Hospital and had been approved by the clinical ethics committee of West China Hospital of Sichuan University (Chengdu, China). The clinical information of these patients was summarized in Supplementary Table 2. The patient primary cells were cultured in 6-well plates at a density of 1×10^6 cells/mL, and treated with control, PM, panobinostat, Pom and DXM at indicated concentrations for 48 hours. CD138, CD38, and CD20 monoclonal antibodies, Annexin V-APC and 7AAD apoptosis detection kits were used following the manufacturer’s instructions. The apoptosis cells were analyzed by flow cytometry (Thermo, AttuneTMNxT).

[2] = system: primary MM cells from relapsed patients A and B; assay: Cell apoptosis analysis, primary cells; format: cell-based, human; conditions: 5 nM, 48 h
Method: as §2

r/r DLBCL PDX = r/r DLBCL PDX mouse model; format: in vivo, mice; conditions: PM 10 mg/kg; Pola-BR per Table S9
Method: All animal studies were performed in accordance with the guidelines approved by the Institutional Animal Care and Use Committee of Sichuan University, Chengdu, China. Six- to seven-week-old female NOD-SCID mice were purchased from Beijing Vital River Laboratory Animal Technology Co., Ltd. (China). Mice received subcutaneous inoculation with 0.5 × 10^7 MM1S or RPMI-8226 cells, to establish xenograft models. Heterotopic PDX models were generated as previously described.[54] When tumors reached 150–250 mm^3, mice were treated with various compounds. PM and panobinostat were administered intravenously three times a week at 5 mg/kg in combination therapy. […] Tumor volume (tumor volume (mm^3) = π/6 × length × width^2) and body weights were measured every two days. At the end, tumor tissues were weighed, and antitumor activity was evaluated by the tumor inhibition rate = (1 − tumor weight of treatment group/tumor weight of vehicle group) × 100%.

5TGM1-luc myeloma = assay: 5TMM mouse model, survival and serum calcium; format: in vivo, C57BL/KawRij mice; design: serum calcium level: unit not given here; conditions: 10 mg/kg
Method: The cMYC-KRAS12V-induced plasmacytoma mouse model in BALB/c (GemPharmatech Co., Ltd., Nanjing, China) was established as previously described.[33] On day 28 or 35 post bone marrow transplantation, recipients received various treatments. The 5TMM mouse model was established as previously described.[55] The 5TGM1-luc cells were intravenously injected into 6-week-old C57BL/KawRij mice (Harlan Co. Netherlands) with 2 × 10^6 cells per mouse. After three weeks, mice were treated with vehicle or PM 10 mg/kg. Serum Ca^2+ levels were monitored weekly for three weeks after the start of administration. Kaplan-Meier survival curves were generated for each treatment group. Additionally, the 5TMM mouse model studying PM’s effects on immune response and bone destruction involved randomizing mice into vehicle and PM (10 mg/kg) groups one week after inoculation. T cell subsets were analyzed by flow cytometry 24 h after a single dose and 1 month after vehicle or PM treatment. The mice were sacrificed after 1 month of treatment, and the bone destruction was detected by Micro-CT.

[3] = system: class IIb HDAC substrate α-tubulin in SUDHL-6, Daudi, Raji, Ramos, RPMI-8226; assay: Cellular acetylation of α-tubulin; format: cell-based, human
Description: The results of these cell experiments were consistent with the in vitro enzyme activity assay results.

[4] = system: BCR-ABL positive B-ALL PDX; assay: PDX model of clinical B-ALL patient; format: in vivo, NOD/SCID mice
Description: A clinical sample from a B-ALL patient was obtained, characterized by BCR-ABL positivity and relapse after first-line treatment.

[5] = Pharmacokinetics in plasma and tumor, HCT116 tumor-bearing mice; format: in vivo, nude mice
Method: The mean residence time (MRT) was 0.51 ± 0.06 hours in plasma and 39.48 ± 4.74 hours in tumor.

CYP3A4 = assay: CYP induction, cryopreserved human liver cells; format: in vitro ADME; conditions: 0.0500, 0.500, 5.00 µM; three donors
HDAC I/IIb = system: HDAC I/IIb; design: method as in PMID 27186676, PMID 31439580; conditions: range over isoforms; read-out: IC50 against HDAC I/IIb; cited from earlier work

HDAC9, sequence (Q9UKV0 whole entry): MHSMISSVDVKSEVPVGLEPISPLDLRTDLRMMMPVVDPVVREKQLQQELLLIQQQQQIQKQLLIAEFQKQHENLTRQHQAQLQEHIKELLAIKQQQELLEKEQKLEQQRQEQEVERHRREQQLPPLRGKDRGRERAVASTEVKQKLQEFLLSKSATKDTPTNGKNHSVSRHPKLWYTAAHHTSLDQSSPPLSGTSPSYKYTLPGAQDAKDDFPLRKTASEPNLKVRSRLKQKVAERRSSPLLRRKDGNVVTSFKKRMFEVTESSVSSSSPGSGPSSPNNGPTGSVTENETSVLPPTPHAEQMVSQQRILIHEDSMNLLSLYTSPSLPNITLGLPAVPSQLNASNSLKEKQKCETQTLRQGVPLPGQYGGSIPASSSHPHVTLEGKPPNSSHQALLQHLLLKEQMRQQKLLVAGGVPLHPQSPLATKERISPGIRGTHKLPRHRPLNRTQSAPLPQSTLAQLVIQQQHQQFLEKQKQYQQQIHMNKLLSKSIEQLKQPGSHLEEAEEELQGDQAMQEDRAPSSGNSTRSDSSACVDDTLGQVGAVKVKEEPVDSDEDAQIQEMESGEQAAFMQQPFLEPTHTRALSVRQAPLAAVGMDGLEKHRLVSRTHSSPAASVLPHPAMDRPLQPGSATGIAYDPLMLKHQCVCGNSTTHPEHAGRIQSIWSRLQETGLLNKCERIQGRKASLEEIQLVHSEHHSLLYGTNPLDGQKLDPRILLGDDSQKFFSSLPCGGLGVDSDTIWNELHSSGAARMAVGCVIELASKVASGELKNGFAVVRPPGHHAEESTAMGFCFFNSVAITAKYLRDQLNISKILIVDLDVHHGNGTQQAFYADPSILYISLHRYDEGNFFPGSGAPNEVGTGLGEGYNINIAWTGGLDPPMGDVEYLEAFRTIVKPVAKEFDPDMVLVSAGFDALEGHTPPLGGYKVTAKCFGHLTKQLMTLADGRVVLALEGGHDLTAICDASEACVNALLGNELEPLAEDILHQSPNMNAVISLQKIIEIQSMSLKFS
HDAC6, sequence (Q9UBN7 whole entry): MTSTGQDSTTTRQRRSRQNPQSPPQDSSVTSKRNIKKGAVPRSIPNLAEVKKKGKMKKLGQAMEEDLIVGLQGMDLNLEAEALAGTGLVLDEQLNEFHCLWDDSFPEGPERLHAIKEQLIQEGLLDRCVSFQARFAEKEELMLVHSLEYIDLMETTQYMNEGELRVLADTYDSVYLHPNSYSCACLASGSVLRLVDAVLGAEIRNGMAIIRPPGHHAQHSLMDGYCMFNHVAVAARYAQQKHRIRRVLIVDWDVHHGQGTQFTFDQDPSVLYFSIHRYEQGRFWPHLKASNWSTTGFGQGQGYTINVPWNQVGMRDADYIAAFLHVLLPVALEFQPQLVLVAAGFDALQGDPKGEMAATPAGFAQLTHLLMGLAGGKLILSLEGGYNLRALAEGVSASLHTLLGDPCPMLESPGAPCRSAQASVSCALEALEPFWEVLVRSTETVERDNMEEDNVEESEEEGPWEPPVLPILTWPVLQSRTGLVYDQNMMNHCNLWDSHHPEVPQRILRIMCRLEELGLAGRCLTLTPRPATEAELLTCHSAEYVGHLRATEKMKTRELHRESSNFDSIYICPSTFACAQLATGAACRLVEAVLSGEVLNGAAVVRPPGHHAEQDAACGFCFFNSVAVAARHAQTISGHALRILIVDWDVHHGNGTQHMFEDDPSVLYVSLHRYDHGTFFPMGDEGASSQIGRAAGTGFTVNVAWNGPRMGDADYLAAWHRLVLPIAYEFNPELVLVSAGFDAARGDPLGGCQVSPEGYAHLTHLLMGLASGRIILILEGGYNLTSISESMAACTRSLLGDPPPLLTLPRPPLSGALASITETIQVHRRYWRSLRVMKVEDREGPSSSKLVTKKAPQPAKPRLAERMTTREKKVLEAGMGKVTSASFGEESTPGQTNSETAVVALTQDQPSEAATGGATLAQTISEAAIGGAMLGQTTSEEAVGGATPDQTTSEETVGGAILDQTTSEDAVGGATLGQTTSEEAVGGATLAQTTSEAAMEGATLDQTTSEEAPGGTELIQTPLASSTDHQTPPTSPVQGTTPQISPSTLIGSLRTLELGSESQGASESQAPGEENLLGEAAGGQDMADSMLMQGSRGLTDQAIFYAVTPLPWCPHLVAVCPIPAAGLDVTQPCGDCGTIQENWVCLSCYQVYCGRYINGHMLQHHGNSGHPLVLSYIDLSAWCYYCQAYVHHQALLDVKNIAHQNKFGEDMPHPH

Compound `CN(Cc1nc2c(N3CCOCC3)nc(-c3ccc(N)cc3)nc2n1C)c1ncc(C(=O)NO)cn1.CS(=O)(=O)O` [PM, 2-(((2-(4-Aminophenyl)-9-methyl-6-(4-morpholinyl)-9H-purine-8-yl)methyl)methylamino)-N-hydroxy-5-pyrimidine-carboxamide Mesylate] has an IC50 (HDAC6) of 11.5 nM, an IC50 (HDAC9) of 622 nM and an IC50 (HDAC11) of 3350 nM. The IC50 (Karpas299) was 1.16 ± 0.14 nM, the IC50 (OPM2) was 1.78 ± 0.13 nM and the IC50 (RL) was 1.27 ± 0.14 nM. It also gave an IC50 (TMD-8) of 0.99 ± 0.14 nM, an apoptosis [1] of 82.1% and an apoptosis ([2]; patient A) of 92.9%. For the same compound, the apoptosis ([2]; patient B) was 82.0%, the tumor inhibition rate (r/r DLBCL PDX) was 77.14% and the serum calcium level (5TGM1-luc myeloma; two weeks, vehicle 20.93) was 8.972. For the same compound, the survival (5TGM1-luc myeloma; vehicle 50 days) was 86 days, the “concentration inducing increased acetylation of α-tubulin” value [3] was 3 to 10 nM and the median survival time ([4]; 2.5 mg/kg, solvent control 21 days) was 66 days. The median survival time ([4]; 10 mg/kg) was 73 days, the “tumor AUC(0-96h)” value ([5]; multiple i.v. 10 mg/kg) was 9068 ± 213 µg·h/L and the Cmax ([5]; nude, mouse, plasma, iv, 10 mg/kg, single i.v. 10 mg/kg, read-out: Cmax in plasma) was 0.442 ± 0.0672 µg/mL. It also gave an MRT ([5]; nude, mouse, plasma, iv, 10 mg/kg, single i.v. 10 mg/kg, read-out: MRT in plasma) of 0.51 ± 0.06 h, a half-life ([5]; nude, mouse, plasma, iv, 10 mg/kg, single i.v. 10 mg/kg, read-out: elimination half-life (T1/2) in plasma (converted)) of 1.21 h and an AUC(0-t) ([5]; nude, mouse, plasma, iv, single i.v. 10 mg/kg, read-out: plasma AUC(0-8h)) of 0.174 ± 0.0252 µg·h/mL. For the same compound, the Kp ([5]; nude, mouse, tumor and plasma, intravenous, 10 mg/kg, single dose, read-out: tumor AUC0-t / plasma AUC0-t ratio) was 74.4, the concentration at 96 h ([5]; nude, mouse, tumor, intravenous, 10 mg/kg, single dose, read-out: drug concentration in tumor tissue after 96 hours) was 69 ng/mL and ~140 nM and the Cmax ([5]; nude, mouse, tumor, iv, 10 mg/kg, multiple i.v. 10 mg/kg, read-out: Cmax in tumor) was 0.283 ± 0.0648 µg/mL. It also gave an MRT ([5]; nude, mouse, tumor, iv, 10 mg/kg, multiple i.v. 10 mg/kg, read-out: MRT in tumor) of 34.7 ± 1.86 h, a half-life ([5]; nude, mouse, tumor, iv, 10 mg/kg, multiple i.v. 10 mg/kg, read-out: elimination half-life (T1/2) in tumor (converted)) of 68.7 ± 54.5 h and a Cmax ([5]; nude, mouse, tumor, iv, 10 mg/kg, single i.v. 10 mg/kg, read-out: Cmax in tumor) of 1.04 ± 0.167 µg/mL. For the same compound, the MRT ([5]; nude, mouse, tumor, iv, 10 mg/kg, single i.v. 10 mg/kg, read-out: MRT in tumor) was 39.5 ± 4.74 h, the half-life ([5]; nude, mouse, tumor, iv, 10 mg/kg, single i.v. 10 mg/kg, read-out: elimination half-life (T1/2) in tumor (converted)) was 45.3 h and the “tumor AUC(0-96h)” value ([5]; single i.v. 10 mg/kg) was 12922 ± 498 µg/Lh. The “induction of CYP3A4” value (CYP3A4) was “did not act as an inducer” and the IC50 (HDAC I/IIb) was 0.81 to 11.5 nM.
